Test system: expert panelists (oral evaluation)
Assay: Sensory evaluation: oral evaluation of an aqueous solution by expert panelists
Format: in vivo, human
Details: 20 ppm, 7 expert panelists, all seven gave this evaluation
Experimental: Oral evaluation of an aqueous solution of 2-(2-l-menthyloxyethyl)ethanol obtained in Example 1 in a concentration of 20 ppm was carried out by 7 expert panelists having 5 years or longer experience.

With `CC(C)[C@@H]1CC[C@@H](C)C[C@H]1OCCOCCO` [2-(2-l-menthyloxyethyl)ethanol] the “cool and refreshing feeling quality (oral evaluation)” value was “excellent cool and refreshing feeling quality”.

Reference: patent US7923585B2, “Menthol derivative and cooling agent composition comprising the same” (Takasago International Corporation, priority 2004, dated 2011)
